System: yeast genes (level of expressed mRNA)
Experiment: DNA chip analysis of expressed mRNA of yeast genes after 2 h culture with a toxic chemical substance
Format: cell-based, Saccharomyces cerevisiae S288C
Conditions: for The level of expressed mRNA in the presence of chemical substance/: ratio to no chemical; for The level of expressed mRNA in the presence of chemical substance/ (ratio to absence): transport facilitation protein gene; for The level of expressed mRNA in the presence of chemical substance/ (ratio to absence of chemical substance): stress protein genes, DNA chip; for The level of expressed mRNA in the presence of chemical substance/ in its absence, gene YPR184W: yeast gene YPR184W
How it was run: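 S. cerevisiae S288C grown at 25° C in YPD; toxicant added at log phase at growth-inhibitory, non-lethal levels for 2 h, untreated cells as control. Poly(A) mRNA reverse-transcribed with Cy3/Cy5-dUTP, hybridized to whole-genome chip at 65° C >12 h; value is fluorescence ratio versus untreated.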

sodium dodecylbenzosulfonate [(17)]
2.2: The level of expressed mRNA in the presence of chemical substance/The level of expressed mRNA in the absence of chemical substance (yeast gene YPL149W)
0.7: The level of expressed mRNA in the presence of chemical substance/ (ratio to absence) (yeast gene YPL274W)
9.1: The level of expressed mRNA in the presence of chemical substance/in the absence of chemical substance (yeast gene YPL088W)
1.3: The level of expressed mRNA in the presence of chemical substance/ (in its absence), gene YNR072W (yeast gene YNR072W, ratio of DNA chip fluorescence intensity to that without chemical substance) | The level of expressed mRNA in the presence of chemical substance/ (yeast gene YOL084W) | The level of expressed mRNA in the presence of chemical substance/in the absence of chemical substance (yeast gene YOR120W) | The level of expressed mRNA in the presence of chemical substance/ (ratio to absence) (yeast gene YOR332W) | The level of expressed mRNA in the presence of chemical substance/ (in its absence), gene YOR363C (yeast gene YOR363C, ratio of DNA chip fluorescence intensity to that without chemical substance) | The level of expressed mRNA in the presence of chemical substance/ (ratio to absence), gene YPL134C (yeast gene YPL134C, mitochondria-located protein genes, 2 h culture with chemical) | The level of expressed mRNA in the presence of chemical substance/ (ratio to absence) (yeast gene YPL224C)
0.8: The level of expressed mRNA in the presence of chemical substance/ (yeast gene YNL240C) | The level of expressed mRNA in the presence of chemical substance/ (ratio to absence) (yeast gene YOL163W) | The level of expressed mRNA in the presence of chemical substance/ (ratio to absence of chemical substance) (yeast gene YOR008C) | The level of expressed mRNA in the presence of chemical substance/ (ratio to absence), gene YOR316C (yeast gene YOR316C, mitochondria-located protein genes, 2 h culture with chemical) | The level of expressed mRNA in the presence of chemical substance/The level of expressed mRNA in the absence of chemical substance (yeast gene YOR355W) | The level of expressed mRNA in the presence of chemical substance/ (ratio to absence), gene YPL040C (yeast gene YPL040C, mitochondria-located protein genes, 2 h culture with chemical) | The level of expressed mRNA in the presence of chemical substance/ (ratio to absence) (yeast gene YPR201W)
3.5: The level of expressed mRNA in the presence of chemical substance/ (yeast gene YOR220W)
1.7: The level of expressed mRNA in the presence of chemical substance/in the absence of chemical substance (yeast gene YNL331C) | The level of expressed mRNA in the presence of chemical substance/The level of expressed mRNA in the absence of chemical substance (yeast gene YNR010W) | The level of expressed mRNA in the presence of chemical substance/in the absence of chemical substance (yeast gene YPR167C)
1.0: The level of expressed mRNA in the presence of chemical substance/in the absence of chemical substance (yeast gene YNL241C) | The level of expressed mRNA in the presence of chemical substance/ (yeast gene YNL293W) | The level of expressed mRNA in the presence of chemical substance/in the absence of chemical substance (yeast gene YNL332W) | The level of expressed mRNA in the presence of chemical substance/The level of expressed mRNA in the absence of chemical substance (yeast gene YOR124C) | The level of expressed mRNA in the presence of chemical substance/in the absence of chemical substance (yeast gene YOR226C) | The level of expressed mRNA in the presence of chemical substance/ (yeast gene YOR228C) | The level of expressed mRNA in the presence of chemical substance/ (yeast gene YOR255W) | The level of expressed mRNA in the presence of chemical substance/The level of expressed mRNA in the absence of chemical substance (yeast gene YOR261C) | The level of expressed mRNA in the presence of chemical substance/ (in its absence), gene YPL148C (yeast gene YPL148C, ratio of DNA chip fluorescence intensity to that without chemical substance) | The level of expressed mRNA in the presence of chemical substance/ (ratio to absence of chemical substance) (yeast gene YPL194W) | The level of expressed mRNA in the presence of chemical substance/ (ratio to absence of chemical substance) (yeast gene YPR005C) | The level of expressed mRNA in the presence of chemical substance/The level of expressed mRNA in the absence of chemical substance (yeast gene YPR108W) | The level of expressed mRNA in the presence of chemical substance/ (ratio to absence) (yeast gene YPR124W) | The level of expressed mRNA in the presence of chemical substance/ in its absence, gene YPR184W (energy system protein genes, 2 h culture with the chemical, ratio to control without chemical) | The level of expressed mRNA in the presence of chemical substance/ in its absence, gene YPR184W (ratio of DNA chip fluorescence intensity to that without chemical substance)
1.1: The level of expressed mRNA in the presence of chemical substance/The level of expressed mRNA in the absence of chemical substance (yeast gene YNR069C) | The level of expressed mRNA in the presence of chemical substance/The level of expressed mRNA in the absence of chemical substance (yeast gene YOL013C) | The level of expressed mRNA in the presence of chemical substance/ (in its absence), gene YOL116W (yeast gene YOL116W, ratio of DNA chip fluorescence intensity to that without chemical substance) | The level of expressed mRNA in the presence of chemical substance/ (ratio to absence of chemical substance) (yeast gene YOL161C) | The level of expressed mRNA in the presence of chemical substance/The level of expressed mRNA in the absence of chemical substance (yeast gene YOL164W) | The level of expressed mRNA in the presence of chemical substance/ (in its absence), gene YOR103C (yeast gene YOR103C, ratio of DNA chip fluorescence intensity to that without chemical substance) | The level of expressed mRNA in the presence of chemical substance/The level of expressed mRNA in the absence of chemical substance (yeast gene YOR181W) | The level of expressed mRNA in the presence of chemical substance/The level of expressed mRNA in the absence of chemical substance (yeast gene YOR198C) | The level of expressed mRNA in the presence of chemical substance/ (yeast gene YPL166W) | The level of expressed mRNA in the presence of chemical substance/ (yeast gene YPL202C) | The level of expressed mRNA in the presence of chemical substance/ (yeast gene YPR147C)
1.6: The level of expressed mRNA in the presence of chemical substance/ (yeast gene YNR061C) | The level of expressed mRNA in the presence of chemical substance/in the absence of chemical substance (yeast gene YOL165C) | The level of expressed mRNA in the presence of chemical substance/ (ratio to absence) (yeast gene YOR035C) | The level of expressed mRNA in the presence of chemical substance/The level of expressed mRNA in the absence of chemical substance (yeast gene YOR036W) | The level of expressed mRNA in the presence of chemical substance/The level of expressed mRNA in the absence of chemical substance (yeast gene YPL154C)
1.8: The level of expressed mRNA in the presence of chemical substance/ (ratio to absence of chemical substance) (yeast gene YPL059W)
2.0: The level of expressed mRNA in the presence of chemical substance/ (yeast gene YOL159C)
2.6: The level of expressed mRNA in the presence of chemical substance/ (ratio to absence) (yeast gene YNL259C)
2.3: The level of expressed mRNA in the presence of chemical substance/ (in its absence), gene YPR165W (yeast gene YPR165W, ratio of DNA chip fluorescence intensity to that without chemical substance)
1.4: The level of expressed mRNA in the presence of chemical substance/in the absence of chemical substance (yeast gene YNL274C) | The level of expressed mRNA in the presence of chemical substance/The level of expressed mRNA in the absence of chemical substance (yeast gene YNL333W) | The level of expressed mRNA in the presence of chemical substance/ (ratio to absence) (yeast gene YOL119C) | The level of expressed mRNA in the presence of chemical substance/ (ratio to absence) (yeast gene YOL158C) | The level of expressed mRNA in the presence of chemical substance/ (ratio to absence of chemical substance) (yeast gene YOR010C) | The level of expressed mRNA in the presence of chemical substance/The level of expressed mRNA in the absence of chemical substance (yeast gene YOR117W) | The level of expressed mRNA in the presence of chemical substance/The level of expressed mRNA in the absence of chemical substance (yeast gene YOR383C) | The level of expressed mRNA in the presence of chemical substance/ (yeast gene YPR077C)
3.2: The level of expressed mRNA in the presence of chemical substance/ (ratio to absence) (yeast gene YOR273C)
0.9: The level of expressed mRNA in the presence of chemical substance/ (yeast gene YNL260C) | The level of expressed mRNA in the presence of chemical substance/ (yeast gene YNR074C) | The level of expressed mRNA in the presence of chemical substance/ (ratio to absence of chemical substance) (yeast gene YOR009W) | The level of expressed mRNA in the presence of chemical substance/ (in its absence), gene YOR180C (yeast gene YOR180C, ratio of DNA chip fluorescence intensity to that without chemical substance) | The level of expressed mRNA in the presence of chemical substance/The level of expressed mRNA in the absence of chemical substance (yeast gene YOR185C) | The level of expressed mRNA in the presence of chemical substance/ (yeast gene YOR225W) | The level of expressed mRNA in the presence of chemical substance/ (in its absence), gene YOR251C (yeast gene YOR251C, ratio of DNA chip fluorescence intensity to that without chemical substance) | The level of expressed mRNA in the presence of chemical substance/The level of expressed mRNA in the absence of chemical substance (yeast gene YOR259C) | The level of expressed mRNA in the presence of chemical substance/ (ratio to absence) (yeast gene YOR270C) | The level of expressed mRNA in the presence of chemical substance/ (in its absence), gene YOR348C (yeast gene YOR348C, ratio of DNA chip fluorescence intensity to that without chemical substance) | The level of expressed mRNA in the presence of chemical substance/ (ratio to absence of chemical substance) (yeast gene YPL140C)
0.5: The level of expressed mRNA in the presence of chemical substance/ (ratio to absence) (yeast gene YPL265W)
1.5: The level of expressed mRNA in the presence of chemical substance/ (ratio to absence of chemical substance) (yeast gene YNR076W) | The level of expressed mRNA in the presence of chemical substance/ (in its absence), gene YOL108C (yeast gene YOL108C, ratio of DNA chip fluorescence intensity to that without chemical substance) | The level of expressed mRNA in the presence of chemical substance/ (ratio to absence) (yeast gene YOR130C) | The level of expressed mRNA in the presence of chemical substance/The level of expressed mRNA in the absence of chemical substance (yeast gene YOR288C) | The level of expressed mRNA in the presence of chemical substance/The level of expressed mRNA in the absence of chemical substance (yeast gene YPL089C) | The level of expressed mRNA in the presence of chemical substance/ (ratio to absence) (yeast gene YPL147W)
4.0: The level of expressed mRNA in the presence of chemical substance/in the absence of chemical substance (yeast gene YOL151W)
2.5: The level of expressed mRNA in the presence of chemical substance/in the absence of chemical substance (yeast gene YOR153W)
1.2: The level of expressed mRNA in the presence of chemical substance/ (yeast gene YNL285W) | The level of expressed mRNA in the presence of chemical substance/ (ratio to absence), gene YOL096C (yeast gene YOL096C, mitochondria-located protein genes, 2 h culture with chemical) | The level of expressed mRNA in the presence of chemical substance/ (in its absence), gene YOL096C (yeast gene YOL096C, ratio of DNA chip fluorescence intensity to that without chemical substance) | The level of expressed mRNA in the presence of chemical substance/ (yeast gene YOR007C) | The level of expressed mRNA in the presence of chemical substance/The level of expressed mRNA in the absence of chemical substance (yeast gene YOR132W) | The level of expressed mRNA in the presence of chemical substance/The level of expressed mRNA in the absence of chemical substance (yeast gene YOR157C) | The level of expressed mRNA in the presence of chemical substance/in the absence of chemical substance (yeast gene YOR303W) | The level of expressed mRNA in the presence of chemical substance/The level of expressed mRNA in the absence of chemical substance (yeast gene YPL109C) | The level of expressed mRNA in the presence of chemical substance/ (ratio to absence) (yeast gene YPL271W) | The level of expressed mRNA in the presence of chemical substance/The level of expressed mRNA in the absence of chemical substance (yeast gene YPR103W)

— US20050112573A1, “Method of detecting toxic substance” (priority 2001, published 2005)
